Results taken from PMC5146859, “Phase 1/2 study of pacritinib, a next generation JAK2/FLT3 inhibitor, in myelofibrosis or other myeloid malignancies” (Journal of Hematology & Oncology, 2016).

System: patients with advanced myeloid malignancies
Assay: Phase 1 safety: adverse events (NCIC-CTCAE version 3.0)
Assay type: in vivo, human
Experimental: At screening/baseline, patients underwent a medical history, physical examination, vital sign assessment, ECOG PS assessment, electrocardiogram, and assessment of hematologic parameters and blood chemistry. Hematology/blood chemistry, physical examinations, and vital sign assessments were performed throughout treatment. Toxicity was assessed using the National Cancer Institute Common Terminology Criteria for Adverse Events (NCIC-CTCAE), version 3.0, with relationship to treatment assigned by the investigator and were recorded from the first dose of pacritinib until 30 days after the last dose. Bone marrow biopsy and/or aspirate samples were drawn at baseline, on day 1 of cycle 4 and cycle 10, as clinically indicated, and at the termination visit. Disease response and progression were determined using the relevant International Working Group (IWG) criteria.
The efficacy-evaluable population included those patients with a baseline and corresponding follow-up value. The safety population included all enrolled patients who received ≥1 dose of pacritinib.

[1] = phase 1, 500 mg QD cohort of seven
[2] = phase 1, all patients n = 43, Grade 1/2

C1=C/COCc2cc(ccc2OCCN2CCCC2)Nc2nccc(n2)-c2cccc(c2)COC/1 [pacritinib, 11-(2-pyrrolidin-1-yl-ethoxy)-14,19-dioxa-5,7,26-triaza-tetracyclo[19.3.1.1(2,6). 1(8,12)]heptacosa-1(25),2(26),3,5,8,10,12(27),16,21,23-decaene]
Treatment-emergent AE: Petechiae (phase 1, 400 mg, n = 6): 0 n (%)
Treatment-emergent AE: Pyrexia (phase 1, 400 mg, n = 6): 2 (33.3) n (%)
Treatment-emergent AE: Skin lesion (phase 1, 400 mg, n = 6): 0 n (%)
Treatment-emergent AE: Thrombocytopenia (phase 1, 400 mg, n = 6): 2 (33.3) n (%)
Treatment-emergent AE: Upper respiratory tract infection (phase 1, 400 mg, n = 6): 0 n (%)
Treatment-emergent AE: Vomiting (phase 1, 400 mg, n = 6): 3 (50.0) n (%)
Patients who discontinued treatment due to AEs [1]: two
Patients who experienced a serious AE [1]: three
Patients who required dose interruptions [1]: three
Patients who required dose reductions [1]: three
Treatment-emergent AE: Abdominal distension (phase 1, 500 mg, n = 7): 1 (14.3) n (%)
Treatment-emergent AE: Abdominal pain (phase 1, 500 mg, n = 7): 0 n (%)
Treatment-emergent AE: Anemia (phase 1, 500 mg, n = 7): 2 (28.6) n (%)
Treatment-emergent AE: Any AE (phase 1, 500 mg, n = 7): 7 (100.0) n (%)
Treatment-emergent AE: Asthenia (phase 1, 500 mg, n = 7): 1 (14.3) n (%)
Treatment-emergent AE: Back pain (phase 1, 500 mg, n = 7): 1 (14.3) n (%)
Treatment-emergent AE: Cardiac murmur (phase 1, 500 mg, n = 7): 1 (14.3) n (%)
Treatment-emergent AE: Chills (phase 1, 500 mg, n = 7): 1 (14.3) n (%)
Treatment-emergent AE: Constipation (phase 1, 500 mg, n = 7): 1 (14.3) n (%)
Treatment-emergent AE: Cough (phase 1, 500 mg, n = 7): 0 n (%)
Treatment-emergent AE: Decreased appetite (phase 1, 500 mg, n = 7): 0 n (%)
Treatment-emergent AE: Dehydration (phase 1, 500 mg, n = 7): 1 (14.3) n (%)
Treatment-emergent AE: Diarrhea (phase 1, 500 mg, n = 7): 7 (100.0) n (%)
Treatment-emergent AE: Dizziness (phase 1, 500 mg, n = 7): 1 (14.3) n (%)
Treatment-emergent AE: Dyspnea (phase 1, 500 mg, n = 7): 1 (14.3) n (%)
Treatment-emergent AE: Edema peripheral (phase 1, 500 mg, n = 7): 2 (28.6) n (%)
Treatment-emergent AE: Epistaxis (phase 1, 500 mg, n = 7): 0 n (%)
Treatment-emergent AE: Fatigue (phase 1, 500 mg, n = 7): 3 (42.9) n (%)
Treatment-emergent AE: Hyperbilirubinemia (phase 1, 500 mg, n = 7): 0 n (%)
Treatment-emergent AE: Hyperuricemia (phase 1, 500 mg, n = 7): 1 (14.3) n (%)
Treatment-emergent AE: Insomnia (phase 1, 500 mg, n = 7): 1 (14.3) n (%)
Treatment-emergent AE: Nausea (phase 1, 500 mg, n = 7): 5 (71.4) n (%)
Treatment-emergent AE: Neutropenia (phase 1, 500 mg, n = 7): 0 n (%)
Treatment-emergent AE: Night sweats (phase 1, 500 mg, n = 7): 1 (14.3) n (%)
Treatment-emergent AE: Pain in extremity (phase 1, 500 mg, n = 7): 0 n (%)
Treatment-emergent AE: Petechiae (phase 1, 500 mg, n = 7): 1 (14.3) n (%)
Treatment-emergent AE: Pyrexia (phase 1, 500 mg, n = 7): 2 (28.6) n (%)
Treatment-emergent AE: Skin lesion (phase 1, 500 mg, n = 7): 0 n (%)
Treatment-emergent AE: Thrombocytopenia (phase 1, 500 mg, n = 7): 1 (14.3) n (%)
Treatment-emergent AE: Upper respiratory tract infection (phase 1, 500 mg, n = 7): 0 n (%)
Treatment-emergent AE: Vomiting (phase 1, 500 mg, n = 7): 3 (42.9) n (%)
Treatment-emergent AE: Abdominal distension (phase 1, 600 mg, n = 6): 2 (33.3) n (%)
Treatment-emergent AE: Abdominal pain (phase 1, 600 mg, n = 6): 1 (16.7) n (%)
Treatment-emergent AE: Anemia (phase 1, 600 mg, n = 6): 3 (50.0) n (%)
Treatment-emergent AE: Any AE (phase 1, 600 mg, n = 6): 6 (100.0) n (%)
Treatment-emergent AE: Asthenia (phase 1, 600 mg, n = 6): 2 (33.3) n (%)
Treatment-emergent AE: Back pain (phase 1, 600 mg, n = 6): 0 n (%)
Treatment-emergent AE: Cardiac murmur (phase 1, 600 mg, n = 6): 2 (33.3) n (%)
Treatment-emergent AE: Chills (phase 1, 600 mg, n = 6): 1 (16.7) n (%)
Treatment-emergent AE: Constipation (phase 1, 600 mg, n = 6): 1 (16.7) n (%)
Treatment-emergent AE: Cough (phase 1, 600 mg, n = 6): 0 n (%)
Treatment-emergent AE: Decreased appetite (phase 1, 600 mg, n = 6): 1 (16.7) n (%)
Treatment-emergent AE: Dehydration (phase 1, 600 mg, n = 6): 1 (16.7) n (%)
Treatment-emergent AE: Diarrhea (phase 1, 600 mg, n = 6): 6 (100.0) n (%)
Treatment-emergent AE: Dizziness (phase 1, 600 mg, n = 6): 1 (16.7) n (%)
Treatment-emergent AE: Dyspnea (phase 1, 600 mg, n = 6): 3 (50.0) n (%)
Treatment-emergent AE: Edema peripheral (phase 1, 600 mg, n = 6): 3 (50.0) n (%)
Treatment-emergent AE: Epistaxis (phase 1, 600 mg, n = 6): 1 (16.7) n (%)
Treatment-emergent AE: Fatigue (phase 1, 600 mg, n = 6): 1 (16.7) n (%)
Treatment-emergent AE: Hyperbilirubinemia (phase 1, 600 mg, n = 6): 0 n (%)
Treatment-emergent AE: Hyperuricemia (phase 1, 600 mg, n = 6): 3 (50.0) n (%)
Treatment-emergent AE: Insomnia (phase 1, 600 mg, n = 6): 0 n (%)
Treatment-emergent AE: Nausea (phase 1, 600 mg, n = 6): 4 (66.7) n (%)
Treatment-emergent AE: Neutropenia (phase 1, 600 mg, n = 6): 0 n (%)
Treatment-emergent AE: Night sweats (phase 1, 600 mg, n = 6): 1 (16.7) n (%)
Treatment-emergent AE: Pain in extremity (phase 1, 600 mg, n = 6): 1 (16.7) n (%)
Treatment-emergent AE: Petechiae (phase 1, 600 mg, n = 6): 0 n (%)
Treatment-emergent AE: Pyrexia (phase 1, 600 mg, n = 6): 2 (33.3) n (%)
Treatment-emergent AE: Skin lesion (phase 1, 600 mg, n = 6): 0 n (%)
Treatment-emergent AE: Thrombocytopenia (phase 1, 600 mg, n = 6): 1 (16.7) n (%)
Treatment-emergent AE: Upper respiratory tract infection (phase 1, 600 mg, n = 6): 0 n (%)
Treatment-emergent AE: Vomiting (phase 1, 600 mg, n = 6): 3 (50.0) n (%)
Treatment-emergent AE: Abdominal distension [2]: 9 (20.9) n (%)
Treatment-emergent AE: Abdominal pain [2]: 6 (14.0) n (%)
Treatment-emergent AE: Anemia [2]: 3 (7.0) n (%)
